# Measured values taken from US7306804B2 (priority 1998, dated 2007).
# Like-named read-outs stand apart in the source and are kept apart here.
# Tests used:
# [1] = test system: PBMCs from control and HIV-1 infected chimpanzees; format: cell-based, chimpanzee
# [2] = test system: PBMCs from normal and HIV-positive individuals; format: cell-based, human; conditions: for number of HIV+ individuals with positive proliferative responses: 17 HIV+ individuals tested
# [3] = test system: anti-peptide antibodies in serum; format: binding, chimpanzee; set-up: key: +, Positive (Titer > 1:100); −, Negative (Titer < 1:100)
# [4] = test system: anti-peptide antibodies in serum; format: binding, human; set-up: key to Anti-peptide antibody response: +, Positive (titer above control); −, Negative (titer below control)
sequence,measurement,setting,value
CRIKQIINMWQGVGKAMYA [Peptide 122],T-cell proliferative response,"[1]; chimpanzee 40, control normal","− (−, Negative (SI < 2.0))"
same,T-cell proliferative response,"[1]; chimpanzee 62, HIV-infected","− (−, Negative (SI < 2.0))"
same,T-cell proliferative response,"[1]; chimpanzee 69, HIV-infected","+ (+, Positive (Stimulation Index [SI] > 2.0))"
same,T-cell proliferative response,"[1]; chimpanzee 73, control normal","− (−, Negative (SI < 2.0))"
same,T-cell proliferative response,"[1]; chimpanzee 80, HIV-infected","+ (+, Positive (Stimulation Index [SI] > 2.0))"
same,T-cell proliferative response,"[1]; chimpanzee 99, HIV-infected","− (−, Negative (SI < 2.0))"
same,T-cell proliferative response,"[1]; chimpanzee 100, HIV-infected","+ (+, Positive (Stimulation Index [SI] > 2.0))"
same,T-cell proliferative response,"[1]; chimpanzee 139, HIV-infected","− (−, Negative (SI < 2.0))"
same,T-cell proliferative response,"[1]; chimpanzee 175, HIV-infected","+ (+, Positive (Stimulation Index [SI] > 2.0))"
same,T-cell proliferative response,"[1]; chimpanzee 247, HIV-infected","− (−, Negative (SI < 2.0))"
same,T-cell proliferative response,"[1]; chimpanzee 310, HIV-infected","− (−, Negative (SI < 2.0))"
same,number of HIV+ individuals with positive proliferative responses,[2],seven
same,T-cell proliferative response,[2]; HIV-positive patient MSf,"− (−, Negative (SI < 2.0))"
same,T-cell proliferative response,[2]; HIV-positive patient MSm,"− (−, Negative (SI < 2.0))"
same,T-cell proliferative response,[2]; HIV-positive patient eight,"− (−, Negative (SI < 2.0))"
same,T-cell proliferative response,[2]; HIV-positive patient eleven,"− (−, Negative (SI < 2.0))"
same,T-cell proliferative response,[2]; HIV-positive patient fifteen,"+ (+, Positive (Stimulation Index [SI] > 2.0))"
same,T-cell proliferative response,[2]; HIV-positive patient five,"− (−, Negative (SI < 2.0))"
same,T-cell proliferative response,[2]; HIV-positive patient four,"− (−, Negative (SI < 2.0))"
same,T-cell proliferative response,[2]; HIV-positive patient fourteen,"+ (+, Positive (Stimulation Index [SI] > 2.0))"
same,T-cell proliferative response,[2]; HIV-positive patient nine,"+ (+, Positive (Stimulation Index [SI] > 2.0))"
same,T-cell proliferative response,[2]; HIV-positive patient one,"+ (+, Positive (Stimulation Index [SI] > 2.0))"
same,T-cell proliferative response,[2]; HIV-positive patient seven,"− (−, Negative (SI < 2.0))"
same,T-cell proliferative response,[2]; HIV-positive patient six,"− (−, Negative (SI < 2.0))"
same,T-cell proliferative response,[2]; HIV-positive patient ten,"+ (+, Positive (Stimulation Index [SI] > 2.0))"
same,T-cell proliferative response,[2]; HIV-positive patient thirteen,"− (−, Negative (SI < 2.0))"
same,T-cell proliferative response,[2]; HIV-positive patient three,"+ (+, Positive (Stimulation Index [SI] > 2.0))"
same,T-cell proliferative response,[2]; HIV-positive patient twelve,"+ (+, Positive (Stimulation Index [SI] > 2.0))"
same,T-cell proliferative response,[2]; HIV-positive patient two,"− (−, Negative (SI < 2.0))"
same,T-cell proliferative response,[2]; Normal-1 (HIV-seronegative),"− (−, Negative (SI < 2.0))"
same,T-cell proliferative response,[2]; Normal-2 (HIV-seronegative),"− (−, Negative (SI < 2.0))"
same,Anti-peptide antibody response,[3],−
same,Anti-peptide antibody response,"[3]; chimpanzee 40, control normal",−
same,Anti-peptide antibody response,"[3]; chimpanzee 73, control normal",−
same,number of HIV+ individuals with positive antibody titers (<1:1280),[4],None
same,Anti-peptide antibody response,[4]; HIV-positive patient MSf,−
same,Anti-peptide antibody response,[4]; HIV-positive patient MSm,−
same,Anti-peptide antibody response,[4]; HIV-positive patient eight,−
same,Anti-peptide antibody response,[4]; HIV-positive patient eleven,−
same,Anti-peptide antibody response,[4]; HIV-positive patient fifteen,−
same,Anti-peptide antibody response,[4]; HIV-positive patient five,−
same,Anti-peptide antibody response,[4]; HIV-positive patient four,−
same,Anti-peptide antibody response,[4]; HIV-positive patient fourteen,−
same,Anti-peptide antibody response,[4]; HIV-positive patient nine,−
same,Anti-peptide antibody response,[4]; HIV-positive patient one,−
same,Anti-peptide antibody response,[4]; HIV-positive patient seven,−
same,Anti-peptide antibody response,[4]; HIV-positive patient six,−
same,Anti-peptide antibody response,[4]; HIV-positive patient ten,−
same,Anti-peptide antibody response,[4]; HIV-positive patient thirteen,−
same,Anti-peptide antibody response,[4]; HIV-positive patient three,−
same,Anti-peptide antibody response,[4]; HIV-positive patient twelve,−
same,Anti-peptide antibody response,[4]; HIV-positive patient two,−
same,Anti-peptide antibody response,[4]; Normal-1 (HIV-seronegative),−
same,Anti-peptide antibody response,[4]; Normal-2 (HIV-seronegative),−
FLGFLGAAGSTMGAASLTLTVQARQ [Peptide 121],T-cell proliferative response,"[1]; chimpanzee 40, control normal","− (−, Negative (SI < 2.0))"
same,T-cell proliferative response,"[1]; chimpanzee 62, HIV-infected","+ (+, Positive (Stimulation Index [SI] > 2.0))"
same,T-cell proliferative response,"[1]; chimpanzee 69, HIV-infected","+ (+, Positive (Stimulation Index [SI] > 2.0))"
same,T-cell proliferative response,"[1]; chimpanzee 73, control normal","− (−, Negative (SI < 2.0))"
same,T-cell proliferative response,"[1]; chimpanzee 80, HIV-infected","+ (+, Positive (Stimulation Index [SI] > 2.0))"
same,T-cell proliferative response,"[1]; chimpanzee 99, HIV-infected","− (−, Negative (SI < 2.0))"
same,T-cell proliferative response,"[1]; chimpanzee 100, HIV-infected","+ (+, Positive (Stimulation Index [SI] > 2.0))"
same,T-cell proliferative response,"[1]; chimpanzee 139, HIV-infected","− (−, Negative (SI < 2.0))"
same,T-cell proliferative response,"[1]; chimpanzee 175, HIV-infected","+ (+, Positive (Stimulation Index [SI] > 2.0))"
same,T-cell proliferative response,"[1]; chimpanzee 247, HIV-infected","− (−, Negative (SI < 2.0))"
same,T-cell proliferative response,"[1]; chimpanzee 310, HIV-infected","− (−, Negative (SI < 2.0))"
same,number of HIV-infected chimpanzees with positive proliferative responses (SI>2.0),[1]; nine HIV-infected chimpanzees tested,five
same,number of HIV+ individuals with positive proliferative responses,[2],five
same,T-cell proliferative response,[2]; HIV-positive patient MSf,"− (−, Negative (SI < 2.0))"
same,T-cell proliferative response,[2]; HIV-positive patient MSm,"− (−, Negative (SI < 2.0))"
same,T-cell proliferative response,[2]; HIV-positive patient eight,"− (−, Negative (SI < 2.0))"
same,T-cell proliferative response,[2]; HIV-positive patient eleven,"− (−, Negative (SI < 2.0))"
same,T-cell proliferative response,[2]; HIV-positive patient fifteen,"+ (+, Positive (Stimulation Index [SI] > 2.0))"
same,T-cell proliferative response,[2]; HIV-positive patient five,"− (−, Negative (SI < 2.0))"
same,T-cell proliferative response,[2]; HIV-positive patient four,"− (−, Negative (SI < 2.0))"
same,T-cell proliferative response,[2]; HIV-positive patient fourteen,"+ (+, Positive (Stimulation Index [SI] > 2.0))"
same,T-cell proliferative response,[2]; HIV-positive patient nine,"− (−, Negative (SI < 2.0))"
same,T-cell proliferative response,[2]; HIV-positive patient one,"− (−, Negative (SI < 2.0))"
same,T-cell proliferative response,[2]; HIV-positive patient seven,"− (−, Negative (SI < 2.0))"
same,T-cell proliferative response,[2]; HIV-positive patient six,"+ (+, Positive (Stimulation Index [SI] > 2.0))"
same,T-cell proliferative response,[2]; HIV-positive patient ten,"+ (+, Positive (Stimulation Index [SI] > 2.0))"
same,T-cell proliferative response,[2]; HIV-positive patient thirteen,"− (−, Negative (SI < 2.0))"
same,T-cell proliferative response,[2]; HIV-positive patient three,"+ (+, Positive (Stimulation Index [SI] > 2.0))"
same,T-cell proliferative response,[2]; HIV-positive patient twelve,"− (−, Negative (SI < 2.0))"
same,T-cell proliferative response,[2]; HIV-positive patient two,"− (−, Negative (SI < 2.0))"
same,T-cell proliferative response,[2]; Normal-1 (HIV-seronegative),"− (−, Negative (SI < 2.0))"
same,T-cell proliferative response,[2]; Normal-2 (HIV-seronegative),"− (−, Negative (SI < 2.0))"
same,Anti-peptide antibody response,[3],−
same,Anti-peptide antibody response,"[3]; chimpanzee 40, control normal",−
same,Anti-peptide antibody response,"[3]; chimpanzee 73, control normal",−
same,number of HIV+ individuals with positive antibody titers (<1:1280),[4],one
same,Anti-peptide antibody response,[4]; HIV-positive patient MSf,−
same,Anti-peptide antibody response,[4]; HIV-positive patient MSm,−
same,Anti-peptide antibody response,[4]; HIV-positive patient eight,−
same,Anti-peptide antibody response,[4]; HIV-positive patient eleven,−
same,Anti-peptide antibody response,[4]; HIV-positive patient fifteen,−
same,Anti-peptide antibody response,[4]; HIV-positive patient five,−
same,Anti-peptide antibody response,[4]; HIV-positive patient four,−
same,Anti-peptide antibody response,[4]; HIV-positive patient fourteen,−
same,Anti-peptide antibody response,[4]; HIV-positive patient nine,+
same,Anti-peptide antibody response,[4]; HIV-positive patient one,−
same,Anti-peptide antibody response,[4]; HIV-positive patient seven,−
same,Anti-peptide antibody response,[4]; HIV-positive patient six,−
same,Anti-peptide antibody response,[4]; HIV-positive patient ten,−
same,Anti-peptide antibody response,[4]; HIV-positive patient thirteen,−
same,Anti-peptide antibody response,[4]; HIV-positive patient three,−
same,Anti-peptide antibody response,[4]; HIV-positive patient twelve,−
same,Anti-peptide antibody response,[4]; HIV-positive patient two,−
same,Anti-peptide antibody response,[4]; Normal-1 (HIV-seronegative),−
same,Anti-peptide antibody response,[4]; Normal-2 (HIV-seronegative),−
